Activity calls are given as the source filed them. The rule behind the calls is not given here.
Legend:
[1] = test system: T1, Tyrosine-protein phosphatase non-receptor type 7 (Homo sapiens), P35236 [P171C,V205C]; assay: Binding affinity to allosterically sensitized mutant form of His6-tagged human HePTP catalytic domain overexpressed in Escherichia coli crude cell lysate at 100 uM after 90 mins by SDS-PAGE analysis
T1 sequence (whole entry): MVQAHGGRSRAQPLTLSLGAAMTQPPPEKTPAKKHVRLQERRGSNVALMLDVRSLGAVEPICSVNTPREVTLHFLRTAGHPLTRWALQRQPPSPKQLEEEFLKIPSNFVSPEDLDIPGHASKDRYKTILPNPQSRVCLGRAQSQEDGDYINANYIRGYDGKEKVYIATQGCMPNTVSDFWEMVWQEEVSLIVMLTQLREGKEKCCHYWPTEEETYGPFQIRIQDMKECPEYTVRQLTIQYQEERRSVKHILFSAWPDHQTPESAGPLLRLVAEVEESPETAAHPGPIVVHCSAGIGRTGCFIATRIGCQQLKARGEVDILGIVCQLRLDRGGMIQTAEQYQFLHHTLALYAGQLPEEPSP

[2] = molecular target: Tyrosine-protein phosphatase non-receptor type 1 (Homo sapiens, UniProt P18031, A122C/P87C); assay: Inhibition of allosterically sensitized His6-tagged human PTP1B catalytic domain P87C/A122C mutant overexpressed in Escherichia coli crude cell lysate using pNPP as substrate incubated for 90 mins by quenched phosphatase activity assay
Tyrosine-protein phosphatase non-receptor type 1, sequence (P18031 whole entry P87C/A122C, the tested form may be a part): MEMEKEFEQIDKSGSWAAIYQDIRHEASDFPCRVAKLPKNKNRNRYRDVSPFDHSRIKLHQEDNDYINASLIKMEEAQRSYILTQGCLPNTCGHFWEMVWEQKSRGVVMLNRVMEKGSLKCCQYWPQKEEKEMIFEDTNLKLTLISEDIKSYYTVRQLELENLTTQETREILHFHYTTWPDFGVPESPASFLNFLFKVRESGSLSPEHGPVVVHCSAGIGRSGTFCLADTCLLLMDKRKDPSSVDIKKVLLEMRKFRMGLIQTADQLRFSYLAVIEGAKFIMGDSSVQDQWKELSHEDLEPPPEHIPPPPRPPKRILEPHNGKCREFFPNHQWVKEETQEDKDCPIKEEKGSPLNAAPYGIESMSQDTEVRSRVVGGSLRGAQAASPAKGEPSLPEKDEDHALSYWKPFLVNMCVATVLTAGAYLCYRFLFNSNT

Row | Structure (SMILES) | Activity [1] | IC50 [2]
1 | O=C(O)c1ccccc1-c1c2ccc(=O)c([As]3SCCS3)c-2oc2c([As]3SCCS3)c(O)ccc12 | inactive | –
2 | CC1(C)C(/C=C/C=C2/N(CCCCS(=O)(=O)O)c3ccc([As]4SCCS4)cc3C2(C)C)=[N+](CCCCS(=O)(=O)O)c2ccc([As]3SCCS3)cc21 | – | 125 nM

From ChEMBL document CHEMBL4118135, “Optimized allosteric inhibition of engineered protein tyrosine phosphatases with an expanded palette of biarsenical small molecules” (Bioorg Med Chem, 2018)
